Data as given in US4737583A, “Anthracyclin derivatives” (priority 1983, dated 1988).
Values after ≈ are worked out from the molar mass of the structure shown. Where two headings read alike, the source gives them in different places.

Experiments:
[1] = solubility (description of the substance)
[2] = system: L1210 leukemia cells; assay: cell proliferation test, incorporation of C14-thymidine into DNA of L1210 leukemia cells; format: cell-based; details: Mus musculus
Protocol: The cytorhodins according to the invention are distinguished by a powerful cytostatic activity and gave the following action on L1210 leukemia cells in the cell proliferation test:
The inhibiting action is determined as follows (cell proliferation test):
L1210 cells in the exponential growth phase (5×10^3 /ml in RPMI 1640) are incubated with various concentrations of the test substance in a microtiter plate for 72 hours (37° C., 5% of CO2, 95% relative atmospheric humidity). Controls comprise cells which are incubated only with fresh medium. All the determinations are carried out as quadruplicate determinations. After 65 hours, 50 μl of C14-thymidine (1.5 μC/ml) are added in order to radioactively label the DNA of the cells. After incubation for 7 hours, the cells are filtered off with suction and the DNA is precipitated with 5% strength trichloroacetic acid and washed successively with water and methanol. After drying at 50° C., the radioactivity incorporated into the DNA is determined, after addition of 5 ml of scintillation liquid. The results are given as the relationships of the scintillation index after incubation with test substance in percent of the untreated control. […]

Structure (SMILES): CCC1(O)CC(OC2CC(N(C)C)C(OC3CC4OC5CC(=O)C(C)OC5OC4C(C)O3)C(C)O2)c2c(O)c3c(c(O)c2C1OC1CC(N(C)C)C(O)C(C)O1)C(=O)c1cccc(O)c1C3=O (stereo not drawn) [Cytorhodin S]
- solubility in methanol, ethyl acetate, chloroform and toluene [1]: readily soluble
- solubility in water and hexane [1]: insoluble
- IC50 ([2]; L1210 leukemia cells, 72 hours, 37° C., incorporation of radioactive thymidine reduced by 50% compared with the control, read-out: IC50): 0.3 ng/mL (≈ 0.319 nM)

Structure (SMILES): CCC1(O)CC(OC2CC(N(C)C)C(O)C(C)O2)c2c(O)c3c(c(O)c2C1OC1CC(N(C)C)C(OC2CC4OC5CC(=O)C(C)OC5OC4C(C)O2)C(C)O1)C(=O)c1cccc(O)c1C3=O (stereo not drawn) [Cytorhodin T]
- solubility in methanol, ethyl acetate, chloroform and toluene [1]: readily soluble
- solubility in water and hexane [1]: insoluble
- IC50 ([2]; L1210, 72 h): 2 ng/mL (≈ 2.13 nM)
